Test results published in ChEMBL document CHEMBL1144369, “2-Ethoxybenzoxazole as a bioisosteric replacement of an ethyl benzoate group in a human rhinovirus (HRV) capsid binder” (Bioorg Med Chem Lett, 2005).
In brackets after ≈: the same amount, converted by molar mass.

Tests used:
Human rhinovirus sp. [1] = experiment: Effective concentration against HRV-2; type: functional, organism-based
Human rhinovirus sp. [2] = experiment: Effective concentration against HRV-14; type: functional, organism-based
Human rhinovirus sp. [3] = experiment: Effective concentration against HRV serotype 89 (assay was run at least six times); type: functional, organism-based
Human rhinovirus sp. [4] = experiment: Effective concentration against HRV serotype 2 (assay was run at least six times); type: functional, organism-based
Human rhinovirus sp. [5] = experiment: Effective concentration against HRV serotype 45 (assay was run for 3 times); type: functional, organism-based
Human rhinovirus sp. [6] = experiment: Effective concentration against HRV serotype 15 (assay was run at least six times); type: functional, organism-based
Human rhinovirus sp. [7] = experiment: Effective concentration against HRV serotype 85 (assay was run at least six times); type: functional, organism-based
Human rhinovirus sp. [8] = experiment: Effective concentration against HRV serotype 63 (assay was run at least six times); type: functional, organism-based
Human rhinovirus sp. [9] = experiment: Effective concentration against HRV serotype 9 (assay was run at least six times); type: functional, organism-based
Human rhinovirus sp. [10] = experiment: Effective concentration against HRV serotype 14 (assay was run at least six times); type: functional, organism-based
Human rhinovirus sp. [11] = experiment: Effective concentration against HRV serotype 59 (assay was run at least six times); type: functional, organism-based
Human rhinovirus sp. [12] = experiment: Effective concentration against HRV serotype 86 (assay was run at least six times); type: functional, organism-based
Human rhinovirus sp. [13] = experiment: Median effective concentration against HRV serotypes; Number of serotypes 16; type: functional, organism-based
Human rhinovirus sp. [14] = experiment: Effective concentration against HRV serotype 51 (assay was run at least six times); type: functional, organism-based
Human rhinovirus sp. [15] = experiment: Effective concentration against HRV serotype 70 (assay was run at least six times); type: functional, organism-based
Human rhinovirus sp. [16] = experiment: Effective concentration against HRV serotype 39 (assay was run at least six times); type: functional, organism-based
Human rhinovirus sp. [17] = experiment: Effective concentration against HRV serotype 16 (assay was run at least six times); type: functional, organism-based
Human rhinovirus sp. [18] = experiment: Effective concentration against HRV serotype 29 (assay was run at least six times); type: functional, organism-based
Human rhinovirus sp. [19] = experiment: Effective concentration against HRV serotype 72 (assay was run at least six times); type: functional, organism-based
Human rhinovirus sp. [20] = experiment: Effective concentration against HRV-16; type: functional, organism-based
Human rhinovirus sp. [21] = experiment: Percent inhibition of HRV strains at a concentration of 0.064 ug/mL; no. of strains=100; type: functional
Human rhinovirus sp. [22] = experiment: Effective concentration against HRV serotype 45 (assay was run at least six times); type: functional, organism-based

## CCCOc1nc2cc(OCCC3CCN(c4ccc(C)nn4)CC3)ccc2o1
Human rhinovirus sp. [1]
  EC50: 0.002 µg/mL (≈ 0.00504 µM)
Human rhinovirus sp. [2]
  EC50: 0.02 µg/mL (≈ 0.0504 µM)

## CCSc1nc2cc(OCCC3CCN(c4ccc(C)nn4)CC3)ccc2o1
Human rhinovirus sp. [1]
  EC50: 0.002 µg/mL (≈ 0.00502 µM)
Human rhinovirus sp. [2]
  EC50: 0.006 µg/mL (≈ 0.0151 µM)

## CCCOc1nc2ccc(OCCC3CCN(c4ccc(C)nn4)CC3)cc2s1
Human rhinovirus sp. [1]
  EC50: 0.166 µg/mL (≈ 0.402 µM)
Human rhinovirus sp. [2]
  EC50: 0.041 µg/mL (≈ 0.0994 µM)

## CCc1nc2cc(OCCC3CCN(c4ccc(C)nn4)CC3)ccc2o1
Human rhinovirus sp. [1]
  EC50: 0.144 µg/mL (≈ 0.393 µM)
Human rhinovirus sp. [2]
  EC50: 0.13 µg/mL (≈ 0.355 µM)

## CCCCc1nc2cc(OCCC3CCN(c4ccc(C)nn4)CC3)ccc2o1
Human rhinovirus sp. [1]
  EC50: 0.013 µg/mL (≈ 0.033 µM)
Human rhinovirus sp. [2]
  EC50: 0.082 µg/mL (≈ 0.208 µM)

## CSc1nc2cc(OCCC3CCN(c4ccc(C)nn4)CC3)ccc2o1
Human rhinovirus sp. [1]
  EC50: 0.099 µg/mL (≈ 0.257 µM)
Human rhinovirus sp. [2]
  EC50: 0.047 µg/mL (≈ 0.122 µM)

## COc1nc2cc(OCCC3CCN(c4ccc(C)nn4)CC3)ccc2o1
Human rhinovirus sp. [1]
  EC50: 0.159 µg/mL (≈ 0.432 µM)
Human rhinovirus sp. [2]
  EC50: 0.099 µg/mL (≈ 0.269 µM)

## CCOc1nc2cc(OCCC3CCN(c4ccc(C)nn4)CC3)ccc2o1
Human rhinovirus sp. [3]
  EC50: 0.00151 µg/mL (≈ 0.00395 µM)
Human rhinovirus sp. [1]
  EC50: 0.003 µg/mL (≈ 0.00784 µM)
Human rhinovirus sp. [4]
  EC50: 0.00116 µg/mL (≈ 0.00303 µM)
Human rhinovirus sp. [5]
  EC50: > 0.25 µg/mL
Human rhinovirus sp. [6]
  EC50: 0.00433 µg/mL (≈ 0.0113 µM)
Human rhinovirus sp. [7]
  EC50: 0.00078 µg/mL (≈ 0.00204 µM)
Human rhinovirus sp. [8]
  EC50: 0.0003 µg/mL (≈ 0.000784 µM)
Human rhinovirus sp. [9]
  EC50: 0.0012 µg/mL (≈ 0.00314 µM)
Human rhinovirus sp. [10]
  EC50: 0.00432 µg/mL (≈ 0.0113 µM)
Human rhinovirus sp. [11]
  EC50: 0.00226 µg/mL (≈ 0.00591 µM)
Human rhinovirus sp. [12]
  EC50: 0.00874 µg/mL (≈ 0.0229 µM)
Human rhinovirus sp. [13]
  EC50: 0.00388 µg/mL (≈ 0.0101 µM)
Human rhinovirus sp. [14]
  EC50: 0.00345 µg/mL (≈ 0.00902 µM)
Human rhinovirus sp. [15]
  EC50: 0.0152 µg/mL (≈ 0.0398 µM)
Human rhinovirus sp. [16]
  EC50: 0.00053 µg/mL (≈ 0.00139 µM)
Human rhinovirus sp. [17]
  EC50: 0.00772 µg/mL (≈ 0.0202 µM)
Human rhinovirus sp. [18]
  EC50: 0.00728 µg/mL (≈ 0.019 µM)
Human rhinovirus sp. [2]
  EC50: 0.007 µg/mL (≈ 0.0183 µM)
Human rhinovirus sp. [19]
  EC50: 0.142 µg/mL (≈ 0.372 µM)

## CCOc1nc2ccc(OCCC3CCN(c4ccc(C)nn4)CC3)cc2o1
Human rhinovirus sp. [1]
  EC50: 0.045 µg/mL (≈ 0.118 µM)
Human rhinovirus sp. [20]
  EC50: 0.023 µg/mL (≈ 0.0601 µM)

## Cc1ccc(N2CCC(CCOc3ccc4nc(C)oc4c3)CC2)nn1
Human rhinovirus sp. [1]
  EC50: > 0.5 µg/mL
Human rhinovirus sp. [2]
  EC50: > 0.5 µg/mL

## CCOC(=O)c1ccc(OCCC2CCN(c3ccc(C)nn3)CC2)cc1 [PIRODAVIR]
Human rhinovirus sp. [3]
  EC50: 0.0057 µg/mL (≈ 0.0154 µM)
Human rhinovirus sp. [4]
  EC50: 0.00277 µg/mL (≈ 0.0075 µM)
Human rhinovirus sp. [21]
  inhibition at 0.064 µg/mL: 80%
Human rhinovirus sp. [6]
  EC50: 0.00792 µg/mL (≈ 0.0214 µM)
Human rhinovirus sp. [7]
  EC50: 0.00472 µg/mL (≈ 0.0128 µM)
Human rhinovirus sp. [8]
  EC50: 0.00083 µg/mL (≈ 0.00225 µM)
Human rhinovirus sp. [9]
  EC50: 0.00205 µg/mL (≈ 0.00555 µM)
Human rhinovirus sp. [10]
  EC50: 0.00365 µg/mL (≈ 0.00988 µM)
Human rhinovirus sp. [11]
  EC50: 0.00437 µg/mL (≈ 0.0118 µM)
Human rhinovirus sp. [12]
  EC50: 0.00956 µg/mL (≈ 0.0259 µM)
Human rhinovirus sp. [13]
  EC50: 0.00454 µg/mL (≈ 0.0123 µM)
Human rhinovirus sp. [14]
  EC50: 0.00521 µg/mL (≈ 0.0141 µM)
Human rhinovirus sp. [22]
  EC50: > 5 µg/mL
Human rhinovirus sp. [15]
  EC50: 0.00214 µg/mL (≈ 0.00579 µM)
Human rhinovirus sp. [16]
  EC50: 0.0018 µg/mL (≈ 0.00487 µM)
Human rhinovirus sp. [17]
  EC50: 0.0152 µg/mL (≈ 0.0412 µM)
Human rhinovirus sp. [18]
  EC50: 0.00374 µg/mL (≈ 0.0101 µM)
Human rhinovirus sp. [19]
  EC50: 0.0348 µg/mL (≈ 0.0941 µM)

## CCSc1nc2ccc(OCCC3CCN(c4ccc(C)nn4)CC3)cc2o1
Human rhinovirus sp. [1]
  EC50: 0.004 µg/mL (≈ 0.01 µM)
Human rhinovirus sp. [2]
  EC50: 0.05 µg/mL (≈ 0.125 µM)

## Cc1ccc(N2CCC(CCOc3ccc4oc(C)nc4c3)CC2)nn1
Human rhinovirus sp. [1]
  EC50: > 0.5 µg/mL
Human rhinovirus sp. [2]
  EC50: > 0.5 µg/mL

## Cc1cc(CCCOc2c(C)cc(-c3noc(C(F)(F)F)n3)cc2C)on1 [PLECONARIL]
Human rhinovirus sp. [3]
  EC50: 0.0293 µg/mL (≈ 0.0769 µM)
Human rhinovirus sp. [4]
  EC50: 0.0265 µg/mL (≈ 0.0694 µM)
Human rhinovirus sp. [6]
  EC50: 0.0698 µg/mL (≈ 0.183 µM)
Human rhinovirus sp. [7]
  EC50: 0.034 µg/mL (≈ 0.0892 µM)
Human rhinovirus sp. [8]
  EC50: 0.0623 µg/mL (≈ 0.163 µM)
Human rhinovirus sp. [9]
  EC50: 0.0372 µg/mL (≈ 0.0974 µM)
Human rhinovirus sp. [10]
  EC50: 0.0343 µg/mL (≈ 0.09 µM)
Human rhinovirus sp. [11]
  EC50: 0.387 µg/mL (≈ 1.02 µM)
Human rhinovirus sp. [12]
  EC50: 0.07 µg/mL (≈ 0.184 µM)
Human rhinovirus sp. [13]
  EC50: 0.0496 µg/mL (≈ 0.13 µM)
Human rhinovirus sp. [14]
  EC50: 0.0304 µg/mL (≈ 0.0797 µM)
Human rhinovirus sp. [22]
  EC50: 1.91 µg/mL (≈ 5 µM)
Human rhinovirus sp. [15]
  EC50: 0.0539 µg/mL (≈ 0.141 µM)
Human rhinovirus sp. [16]
  EC50: 0.0449 µg/mL (≈ 0.118 µM)
Human rhinovirus sp. [17]
  EC50: 0.108 µg/mL (≈ 0.283 µM)
Human rhinovirus sp. [18]
  EC50: 0.0454 µg/mL (≈ 0.119 µM)
Human rhinovirus sp. [19]
  EC50: 0.469 µg/mL (≈ 1.23 µM)

## CCOc1nc2cc(OCCC3CCN(c4ccc(C)nn4)CC3)ccc2s1
Human rhinovirus sp. [1]
  EC50: 0.007 µg/mL (≈ 0.0176 µM)
Human rhinovirus sp. [2]
  EC50: 0.006 µg/mL (≈ 0.0151 µM)

## CCCc1nc2cc(OCCC3CCN(c4ccc(C)nn4)CC3)ccc2o1
Human rhinovirus sp. [1]
  EC50: 0.075 µg/mL (≈ 0.197 µM)
Human rhinovirus sp. [2]
  EC50: 0.028 µg/mL (≈ 0.0736 µM)

## CCSc1nc2ccc(OCCC3CCN(c4ccc(C)nn4)CC3)cc2n1C
Human rhinovirus sp. [1]
  EC50: 0.086 µg/mL (≈ 0.209 µM)
Human rhinovirus sp. [2]
  EC50: > 0.25 µg/mL

## CCSc1nc2ccc(OCCC3CCN(c4ccc(C)nn4)CC3)cc2s1
Human rhinovirus sp. [1]
  EC50: 0.165 µg/mL (≈ 0.398 µM)
Human rhinovirus sp. [2]
  EC50: 0.049 µg/mL (≈ 0.118 µM)

## CCOc1nc2ccc(OCCC3CCN(c4ccc(C)nn4)CC3)cc2s1
Human rhinovirus sp. [1]
  EC50: 0.104 µg/mL (≈ 0.261 µM)
Human rhinovirus sp. [2]
  EC50: 0.014 µg/mL (≈ 0.0351 µM)

## CCSc1nc2cc(OCCC3CCN(c4ccc(C)nn4)CC3)ccc2n1C
Human rhinovirus sp. [1]
  EC50: 0.102 µg/mL (≈ 0.248 µM)
Human rhinovirus sp. [2]
  EC50: 0.169 µg/mL (≈ 0.411 µM)
